According to patent US20250368639A1, “SOLID FORMS OF A COMPOUND FOR TREATING OR PREVENTING HYPERURICEMIA OR GOUT” (ATOM THERAPEUTICS CO., LTD, priority 2022, published 2025):
Converted amounts (≈) assume the structure as drawn. Like-named read-outs stand apart in the source and are kept apart here.

Legend:
[1] = Solubility in water, buffers and bio-relevant media (37° C., 24 h shaking, HPLC); type: physicochemical; details: 37° C., 24 h
Experimental: The solubility of Form 1, Form 2, Form 5D, Form 6, Form 8, and Form 11 was analyzed in water, 0.1NaqueousHCl, pH4.5 acetate buffer solution, pH6.8 phosphate buffer solution, simulated gastric fluid (SGF), Fasted State Simulated Intestinal Fluid (FaSSIF), and Fed State Simulated Intestinal Fluid (FeSSIF).
About 5 mg or 10 mg of sample was weighed out into each vial and mixed with about 5 ml of medium to form a solution. The target concentration for the potassium salt in water was 2 mg/ml; and the target concentration for all other forms were 1 mg/mL. All samples were kept shaking at 200 rounds per minute (rpm) under 37° C. for 24 hours. The pH value of these samples were determined after shaking for 24 hours. Subsequently, they were centrifuged at the speed of 12000 rpm for 2 mins. The supernatant was diluted with methanol as necessary, and the concentrations were determined by HPLC. When the solubility of potassium salt was tested in water, the supernatant was diluted 100 times, while no other samples were diluted. The HPLC analysis utilizes Agilent Eclipse XDB-C8 4.6*150 mm, 5 μm column at 40° C., a mobile phase of 0.1% TFA: ACN=70:30, an injection volume of 10 μl, a flow rate of 1.0 ml/min, a diluent of methanol, and a detection wavelength of 234 nm.

[2] = Dynamic vapor sorption/desorption (DVS); type: physicochemical
Experimental: Moisture sorption/desorption data were collected on a SMS DVS intrinsic Vapor Sorption Analyzer under a nitrogen purge. The DVS experiment generally includes a moisture sorption step and a moisture desorption step. […] In other words, the sample is considered to have reached an equilibrium between moisture sorption and desorption under the relative humidity when dm/dt≤0.01%. The sample was maintained at the temperature of 25° C. with relative humidity varied from 0% to 95%, and back to 0% at an increment of 5% RH each step.

[3] = Suspensions for animal formulation in 0.5% CMC-Na (XRPD); type: physicochemical; details: about 30 mg in 30 ml, sonication
Experimental: About 30 mg of Form 1, Form 2, and Form 5D were each added into a respective 40 ml glass bottle and mixed with 30 ml of 0.5% CMC-Na solution. The solids were dispersed uniformly in the solution with the aid of sonication. After that, the solids were isolated by centrifugation, dried at room temperature, and the dry solid analyzed with XRPD.

[4] = Single-dose pharmacokinetic study, oral and intravenous, in SD rats; type: in vivo, SD rat; details: for AUC(0-t) / Cmax / MRT last / AUC(0-inf) / clearance / half-life / Vd / Vd/F: male, SD, rat, plasma; for AUC(0-inf): read-out: AUCINF—pred; for clearance: read-out: Cl—pred (converted); for half-life: read-out: HL_Lambda_z (T1/2) (converted); for Vd: read-out: Vz—pred; for Vd/F: read-out: Vz—F—pred
Experimental: Form 1, Form 2, and Form 5D were each evaluated via a single-dose pharmacokinetic study following oral and intravenous administration in SD rats. […] Form 1, Form 2, and Form 5Dwere evaluated by rat pharmacokinetics study.
Male SD rat was purchased from Shanghai Sippr B&K Laboratory Animals Co., Ltd. The weight was 180 g˜200 g.
20% HP-β-CD was prepared from dissolving20 g of HP-β-CD (from Sigma) in 100 mL purified water. 0.5% CMC-Na was prepared from dissolving 1 g of CMC-Na (from Aladdin) in 200 mL purified water. The solutions were stored at 2-8 degree.
(§1) Group 1:4.95 mg (equivalent to 4.50 mg of anhydrous free base) of Form 1 was weighed out into a 20 ml bottle, and totally dissolved by 0.225 mL DMSO by sonication. After that, 4.275 mL of 20% HP-β-CD was added, mixed well by sonication. Finally, the pH value was adjusted to 7.0 by sodium hydroxide solution. The clear solution was obtained, and the concentration was 1 mg/mL.
Group 2:10.08 mg (equivalent to 9.164 mg of anhydrous free base) of Form 1 was weighed out into a 20 ml bottle, and then 9.164 mL of 0.5% CMC-Na was added. A white suspension was formed after sonicated by ultrasonic cell disruptor, and the concentration was 1 mg/mL.
Group 3:9.47 mg of Form 2 was weighed out into a 20 ml bottle, and then 9.470 mL of 0.5% CMC-Na was added. After sonicated, it was mixed well by homogenizer for 2 minutes. Finally, a white suspension was formed, and the concentration was 1 mg/mL.
Group 4:9.80 mg (equivalent to 8.909 mg of free base) of Form 5Dwas weighed out into a 20 mL bottle, and then 8.909 mL of 0.5% CMC-Na was added. After sonicated, it was mixed well by homogenizer for 2 minutes. Finally, a white suspension was formed, and the concentration was 1 mg/mL.
as §1, with “Group 5:1.94” for “Group 1:4.95”, “to 1.763” for “to 4.50”, “by 0.088” for “by 0.225”, “that, 1.675” for “that, 4.275”, “was 0.2” for “was 1”
The dose of intravenous administration was 1 mg/kg and 5 mg/kg, respectively. The oral dose was 10 mg/kg. Animals were fasted overnight before drug administration. After the drug administration, the rats were fed at the 4 hours.
About 150˜200 μL of blood was collected at the initial time (only intravenous), and at 0.25, 0.5, 1, 2, 4, 6, 8 and 24 h by jugular venipuncture blooding method. EDTA-K2 was selected as anticoagulant. Blood samples were centrifuged within one hour at 6000 rpm for 8 minutes (placed on wet ice before centrifugation). The supernatant was stored at −20° C. for LC-MS/MS analysis.
The computer program Microsoft Office Excel 2007 (Microsoft, USA) was used to process data and graphics. The pharmacokinetic parameters were calculated by WinNolin 6.4 software.

[5] = iv, 1 mg/kg, male SD rats, intravenous 1 mg/kg, Average
[6] = iv, 1 mg/kg, male SD rats, intravenous 1 mg/kg, individual rats 501/502/503 (c1/c2/c3)
[7] = iv, 5 mg/kg, male SD rats, 5 mg/kg (intravenous), Average
[8] = iv, 5 mg/kg, male SD rats, 5 mg/kg (intravenous), individual rats 101/102/103 (c1/c2/c3)
[9] = po, 10 mg/kg, male SD rats, oral 10 mg/kg, Average (Table 9)
[10] = po, 10 mg/kg, male SD rats, oral 10 mg/kg, individual rats 201/202/203 (c1/c2/c3)

Compound: CCc1nc2ccccn2c1C(=O)c1cc(Br)c(O)c(C#N)c1 [Form 1, 3-bromo-5-[(2-ethylimidazo[1,2-a]pyridin-3-yl)carbonyl]-2-hydroxybenzonitrile]
- Solubility ([1]; 0.1N HCl): 5.0 µg/mL (≈ 13.5 µM)
- Solubility in the buffer solution and bio-relevant medium [1]: low solubilities
- Solubility ([1]; FaSSIF): 16.6 µg/mL (≈ 44.8 µM)
- Solubility ([1]; FeSSIF): 1.9 µg/mL (≈ 5.13 µM)
- Solubility ([1]; SGF): 2.9 µg/mL (≈ 7.83 µM)
- Solubility ([1]; Water): 9.4 µg/mL (≈ 25.4 µM)
- Solubility ([1]; pH 4.5 acetate buffer): 1.0 µg/mL (≈ 2.7 µM)
- Solubility ([1]; pH 6.8 phosphate buffer): 19.8 µg/mL (≈ 53.5 µM)
- DVS (80% RH) ([2]; 25° C., 80% RH): 5.32%
- DVS (85% RH) ([2]; 25° C., 85% RH): 5.68%
- Moisture absorbed (DVS) ([2]; relative humidity cycled from 0% RH to 5% RH): about 3.4 % by weight
- Crystal form after dispersion in 0.5% CMC-Na solution (XRPD) [3]: did not change
- Exposure at 5 mg/kg relative to 1 mg/kg ([4]; SD rats, intravenous administration, 5 mg/kg versus 1 mg/kg): about 5 times
- Exposure and bioavailability (words, comparison) ([4]; SD rats, oral administration 10 mg/kg, 10 mg/kg): sufficiently high bioavailability
- Cl—F—pred ([4]; male SD rats, oral 10 mg/kg, Average (Table 9)): 2.17 mL/min/kg
- F ([4]; male SD rats, oral 10 mg/kg, calculated by intravenous administration of 1 mg/kg, Average (Table 9)): 43.54%
- AUC(0-t) [4, 5]: 17400 ng·h/mL
- Cmax [4, 5]: 9580 ng/mL
- MRT last [4, 5]: 3.65 h
- AUC(0-inf) [4, 5]: 17400 ng·h/mL
- clearance [4, 5]: 1 mL/min/kg
- half-life [4, 5]: 2.9 h
- Vd [4, 5]: 0.24 L/kg
- AUC(0-t) [4, 6]: 18500 ng·h/mL
- Cmax [4, 6]: 7120 ng/mL
- MRT last [4, 6]: 3.99 h
- AUC(0-inf) [4, 6]: 18500 ng·h/mL
- clearance [4, 6]: 0.833 mL/min/kg
- half-life [4, 6]: 3.2 h
- Vd [4, 6]: 0.25 L/kg
- AUC(0-t) [4, 7]: 80200 ng·h/mL
- Cmax [4, 7]: 51400 ng/mL
- MRT last [4, 7]: 3.44 h
- AUC(0-inf) [4, 7]: 80500 ng·h/mL
- clearance [4, 7]: 1 mL/min/kg
- half-life [4, 7]: 3.08 h
- Vd [4, 7]: 0.28 L/kg
- AUC(0-t) [4, 8]: 90800 ng·h/mL
- Cmax [4, 8]: 55700 ng/mL
- MRT last [4, 8]: 3.65 h
- AUC(0-inf) [4, 8]: 91100 ng·h/mL
- clearance [4, 8]: 0.833 mL/min/kg
- half-life [4, 8]: 3.12 h
- Vd [4, 8]: 0.25 L/kg
- AUC(0-t) [4, 9]: 75600 ng·h/mL
- Cmax [4, 9]: 6480 ng/mL
- MRT last [4, 9]: 6.51 h
- AUC(0-inf) [4, 9]: 76200 ng·h/mL
- half-life [4, 9]: 3.16 h
- Vd/F [4, 9]: 0.61 L/kg
- AUC(0-t) [4, 10]: 71500 ng·h/mL
- Cmax [4, 10]: 6030 ng/mL
- MRT last [4, 10]: 6.64 h
- AUC(0-inf) [4, 10]: 72100 ng·h/mL
- half-life [4, 10]: 3.15 h
- Vd/F [4, 10]: 0.63 L/kg
